Laboratory results published in PubChem BioAssay AID330 (DTP/NCI, 2004).
Values joined by “and” are separate entries in the source; they are usually repeats but may differ in a detail not shown here. Identical values can stand only once. Inconclusive results and toxic doses are left out. Rule for the calls: active = survival T/C of 150% or more; inactive = T/C below 125% in these data.

Test system: P388 leukemia ip, CD2F1 mice, survival T/C
Assay: NCI In Vivo Anticancer Drug Screen. Data for tumor model P388 Leukemia (intraperitoneal) in CD2F1 (CDF1) mice
Details: endpoint: median survival time, higher = longer survival
Method: The antitumor activity of compounds was measured in mice bearing transplantable tumors. Survival or tumor size were measured and the results are expressed as the measurement made in the treated group (T) divided by the measurement made in the vehicle treated control group (C). The tumor model used in this assay is P388 Leukemia (intraperitoneal) in CD2F1 (CDF1) mice

[1] = dose: 50.0 mg/kg/injection, schedule: Q01DX009 (ip), vehicle: saline with Tween-80
[2] = dose: 100.0 mg/kg/injection, schedule: Q01DX009 (ip), vehicle: saline with Tween-80
[3] = dose: 200.0 mg/kg/injection, schedule: Q01DX009 (ip), vehicle: saline with Tween-80
[4] = dose: 50.0 mg/kg/injection, schedule: Q01DX009 (ip), vehicle: saline
[5] = dose: 60.0 mg/kg/injection, schedule: Q01DX005 (ip), vehicle: saline with Tween-80
[6] = dose: 120.0 mg/kg/injection, schedule: Q01DX005 (ip), vehicle: saline with Tween-80
[7] = dose: 240.0 mg/kg/injection, schedule: Q01DX005 (ip), vehicle: saline with Tween-80
[8] = dose: 60.0 mg/kg/injection, schedule: Q01DX005 (ip), vehicle: Klucel (hydroxypropylcellulose) (HPC)
[9] = dose: 120.0 mg/kg/injection, schedule: Q01DX005 (ip), vehicle: Klucel (hydroxypropylcellulose) (HPC)
[10] = dose: 240.0 mg/kg/injection, schedule: Q01DX005 (ip), vehicle: Klucel (hydroxypropylcellulose) (HPC)
[11] = dose: 100.0 mg/kg/injection, schedule: Q01DX005 (ip), vehicle: saline with Tween-80
[12] = dose: 200.0 mg/kg/injection, schedule: Q01DX005 (ip), vehicle: saline with Tween-80
[13] = dose: 50.0 mg/kg/injection, schedule: Q01DX005 (ip), vehicle: saline with Tween-80
[14] = dose: 50.0 mg/kg/injection, schedule: Q01DX005 (ip), vehicle: Klucel (hydroxypropylcellulose) (HPC)
[15] = dose: 100.0 mg/kg/injection, schedule: Q01DX005 (ip), vehicle: Klucel (hydroxypropylcellulose) (HPC)
[16] = dose: 200.0 mg/kg/injection, schedule: Q01DX005 (ip), vehicle: Klucel (hydroxypropylcellulose) (HPC)
[17] = dose: 25.0 mg/kg/injection, schedule: Q04DX002 (ip), vehicle: saline with Tween-80
[18] = dose: 50.0 mg/kg/injection, schedule: Q04DX002 (ip), vehicle: saline with Tween-80
[19] = dose: 100.0 mg/kg/injection, schedule: Q04DX002 (ip), vehicle: saline with Tween-80
[20] = dose: 100.0 mg/kg/injection, schedule: Q01DX009 (ip), vehicle: saline
[21] = dose: 200.0 mg/kg/injection, schedule: Q01DX009 (ip), vehicle: saline

Measured: T/C

O=C(CCS(=O)(=O)CCC(=O)c1ccc2ccccc2c1)c1ccc2ccccc2c1
inactive: dose: 25.0 mg/kg/injection, schedule: Q04DX003 (ip), vehicle: saline 102 % of control | dose: 50.0 mg/kg/injection, schedule: Q04DX003 (ip), vehicle: saline 99 % of control | dose: 100.0 mg/kg/injection, schedule: Q04DX003 (ip), vehicle: saline 92 % of control and 98 % of control | dose: 400.0 mg/kg/injection, schedule: Q04DX003 (ip), vehicle: saline 88 % of control

CC(=O)c1c[nH]cc1CO
inactive: [1] 107 % of control | [2] 100 % of control | [3] 98 % of control

O=C(/C=C/c1cccs1)c1ccc(O)c(C(=O)O)c1
inactive: dose: 25.0 mg/kg/injection, schedule: Q01DX009 (ip), vehicle: saline with Tween-80 96 % of control | [1] 105 % of control | [2] 103 % of control

CN1C(c2ccccc2)C2CCCC(C1c1ccccc1)[N+](C)(C)C2 (centres undefined)
inactive: dose: 100.0 mg/kg/injection, schedule: Q04DX003 (ip), vehicle: suspension in saline 104 % of control | dose: 200.0 mg/kg/injection, schedule: Q04DX003 (ip), vehicle: suspension in saline 100 % of control | dose: 400.0 mg/kg/injection, schedule: Q04DX003 (ip), vehicle: suspension in saline 100 % of control

CCN(CC)CCSC(=O)C(O)(c1ccccc1)c1ccccc1
inactive: dose: 2.5 mg/kg/injection, schedule: Q01DX009 (ip), vehicle: saline 108 % of control | dose: 5.0 mg/kg/injection, schedule: Q01DX009 (ip), vehicle: saline 117 % of control | dose: 10.0 mg/kg/injection, schedule: Q01DX009 (ip), vehicle: saline 101 % of control | dose: 12.5 mg/kg/injection, schedule: Q01DX009 (ip), vehicle: saline 100 % of control | dose: 20.0 mg/kg/injection, schedule: Q01DX009 (ip), vehicle: saline 90 % of control | dose: 25.0 mg/kg/injection, schedule: Q01DX009 (ip), vehicle: saline 98 % of control | dose: 40.0 mg/kg/injection, schedule: Q01DX009 (ip), vehicle: saline 101 % of control | [4] 101 % of control (2×) and 107 % of control

CN(C)c1ccc2c(Cl)cc(=O)[nH]c2c1
inactive: [5] 97 % of control | [6] 97 % of control | [7] 97 % of control

O=C=Nc1nc(Cl)c(SC(F)(F)F)c(Cl)n1
inactive: [5] 97 % of control | [6] 98 % of control | [7] 108 % of control

[CH3][Ge]1([CH3])[CH2]C(c2ccccc2)C(c2ccccc2)[CH2]1 (centres undefined)
inactive: [8] 100 % of control | [9] 97 % of control | [10] 98 % of control

CSCCOCc1cc(C)no1
inactive: [5] 100 % of control | [6] 100 % of control | [7] 100 % of control

COc1ccc(C#CC2(O)c3ccccc3C(O)(C#Cc3ccc(OC)cc3)c3ccccc32)cc1 (centres undefined)
inactive: [1] 98 % of control | [2] 98 % of control

O=c1[nH]cnc2cc3[nH]ncc3cc12
inactive: dose: 1.5 mg/kg/injection, schedule: Q01DX005 (ip), vehicle: saline with Tween-80 95 % of control | dose: 3.0 mg/kg/injection, schedule: Q01DX005 (ip), vehicle: saline with Tween-80 87 % of control | dose: 6.25 mg/kg/injection, schedule: Q01DX005 (ip), vehicle: saline with Tween-80 97 % of control | [11] 89 % of control | [12] 88 % of control

CCC(C)C(NC(=O)C(CCCCN)N(C(=O)OCc1ccccc1)C(=O)OCc1ccccc1)C(=O)O (centres undefined)
inactive: [13] 99 % of control | [11] 90 % of control | [12] 94 % of control

Nc1c2cc3c(cc2c[n+]2ccc4ccccc4c12)OCO3
inactive: dose: 6.25 mg/kg/injection, schedule: Q04DX003 (ip), vehicle: distilled water + Tween-80 111 % of control and 113 % of control and 115 % of control | dose: 12.5 mg/kg/injection, schedule: Q04DX003 (ip), vehicle: distilled water + Tween-80 113 % of control and 116 % of control and 120 % of control | dose: 25.0 mg/kg/injection, schedule: Q04DX003 (ip), vehicle: distilled water + Tween-80 111 % of control (2×) and 123 % of control

O=[N+]([O-])c1ccc(SSc2ccc([N+](=O)[O-])s2)s1
inactive: dose: 100.0 mg/kg/injection, schedule: Q01DX001 (ip), vehicle: Klucel (hydroxypropylcellulose) (HPC) 106 % of control

NC(=S)COc1ccccc1
inactive: [1] 105 % of control | [2] 101 % of control | [3] 105 % of control

N=c1ccn2c(n1)OC1C(O)C(COS(=O)OC3C(CO)OC4C3Oc3nc(=N)ccn34)OC12 (centres undefined)
inactive: [3] 112 % of control

COc1cc(Br)cc(OC)c1N
inactive: [1] 97 % of control | [2] 100 % of control | [3] 105 % of control

CCCCCCCCC(=O)c1c(OC)oc(/C=N/NC(N)=S)cc1=O
inactive: dose: 100.0 mg/kg/injection, schedule: Q01DX009 (ip), vehicle: Klucel (hydroxypropylcellulose) (HPC) 86 % of control | dose: 200.0 mg/kg/injection, schedule: Q01DX009 (ip), vehicle: Klucel (hydroxypropylcellulose) (HPC) 91 % of control | dose: 400.0 mg/kg/injection, schedule: Q01DX009 (ip), vehicle: Klucel (hydroxypropylcellulose) (HPC) 98 % of control

Cc1cnc2cc(Cl)ccc2c1Cl
inactive: [14] 101 % of control | [15] 100 % of control | [16] 103 % of control

O=C1C(C(=NCCCN2CCOCC2)c2ccccc2)=C(O)c2ccccc21
inactive: [17] 102 % of control | [18] 101 % of control | [19] 109 % of control

Fc1ccc(NP(=S)(Nc2ccc(F)cc2F)Nc2ccc(F)cc2F)c(F)c1
inactive: [17] 101 % of control | [18] 104 % of control | [19] 102 % of control and 105 % of control

C=C1CC(c2ccc(S(=O)(=O)N3CCOCC3)cc2)OC1=O (centres undefined)
inactive: dose: 25.0 mg/kg/injection, schedule: Q01DX005 (ip), vehicle: Klucel (hydroxypropylcellulose) (HPC) 104 % of control | [14] 120 % of control | [15] 113 % of control

CCOC(=O)c1ccc(N)[n+](C2OC(COC(=O)c3ccccc3)C(OC(=O)c3ccccc3)C2OC(=O)c2ccccc2)c1 (centres undefined)
inactive: [13] 92 % of control | [11] 107 % of control | [12] 112 % of control

Cc1c(N(C)c2ccccc2)c(=S)n(C)c(=S)n1C
inactive: [14] 89 % of control | [15] 100 % of control | [16] 90 % of control

CCOC(=O)c1ccc(N=Cc2cccs2)cc1
inactive: [4] 88 % of control | [20] 92 % of control | [21] 102 % of control

COc1cc(CC(N)C(C)=O)cc(OC)c1OC (centres undefined)
inactive: [4] 99 % of control | [20] 100 % of control | [21] 100 % of control

CCn1c(=S)[nH]c2sc3c(c2c1=O)CCCC3
inactive: [5] 92 % of control | [6] 89 % of control

Cc1cc(=O)[nH]c(=O)n1C1OC(CO)C(O)C1O (centres undefined)
inactive: dose: 50.0 mg/kg/injection, schedule: Q01DX005 (ip), vehicle: saline 109 % of control | dose: 100.0 mg/kg/injection, schedule: Q01DX005 (ip), vehicle: saline 103 % of control | dose: 200.0 mg/kg/injection, schedule: Q01DX005 (ip), vehicle: saline 112 % of control

CC(C)(C)OC(=O)C(N)C(F)C(=O)OC(C)(C)C (centres undefined)
inactive: dose: 25.0 mg/kg/injection, schedule: Q04DX003 (ip), vehicle: saline with Tween-80 96 % of control | dose: 50.0 mg/kg/injection, schedule: Q04DX003 (ip), vehicle: saline with Tween-80 101 % of control | dose: 100.0 mg/kg/injection, schedule: Q04DX003 (ip), vehicle: saline with Tween-80 99 % of control and 104 % of control | dose: 400.0 mg/kg/injection, schedule: Q04DX003 (ip), vehicle: saline with Tween-80 97 % of control

C[C@]12CCC(=O)C[C@@H]1CC[C@@H]1[C@@H]2CC[C@]2(C)[C@@H]3OCCC[C@H]3C[C@@H]12
inactive: [5] 91 % of control | [6] 89 % of control | [7] 90 % of control

CC(C)(C)N1C(=O)C(Cl)(C#N)C1c1ccccc1 (centres undefined)
inactive: [8] 95 % of control | [9] 92 % of control | [10] 92 % of control

CCc1cccc(C)c1NC(=O)CCc1nnc(N)n1N
inactive: [13] 104 % of control | [11] 107 % of control | [12] 94 % of control
